The structures appear in SMILES notation. ≈ marks a conversion by molar mass, not a printed value.

Usually logP stands for the decadic logarithm of the partition coefficient of the neutral form, usually between octanol and water. A higher logP goes with a more lipophilic compound. Consider `CCCCCCCCCCCC(=O)OCC`, for which the logP was found to be 5.71. On the same count and under the same terms, the value for `CC/C=C\C/C=C\C/C=C\CCCCCCCC(=O)OC` was 6.29.

Broadly, the solubility is the dissolved amount per volume that the medium holds. Read a low solubility as a poorly soluble substance. `CCCCCCCCCCc1ccccc1` came in with a solubility (25 °C) of 0.011 µM (≈ 2.4 ng/mL).

Regarding `CCCCCCCCCCCC(=O)OC`, the logP came to 5.41. `CCCCCCCCCCCCCCCC(=O)OC` returned a logP of 7.38.

On to `CCCCCCCCCCCCCCCCCC(=O)OC`, for which the logP was determined as 8.35. Consider `CCCCCCCCCCCC(=O)OCCC`, for which the logP turned out to be 6.11. In turn, `CCCCC/C=C\C/C=C\CCCCCCCC(=O)OC` yielded a logP of 6.82. As to `CCCCCCCCCCCC(=O)OCC(CC)CCCC` (stereo not given), the logP is 8.03.

The compound `CCCCCCCCCCCCCCCCCCCCCC(=O)OC` returned a logP of 10.2.

For the compound `CCCCCCCC/C=C\CCCCCCCC(=O)OC`, the logP was 7.45.

The compound `CCCCCCCCCCCCCCCCCCCC(=O)OC` returned a logP of 9.3. On the same count and under the same terms, the value for `CCCCCCCC/C=C\CCCCCCCCCCCC(=O)OC` was 9.32; that for `CCCCCCCCCCCC(=O)OCCCC` was 6.51. Still for that read-out and setting: the value for `CCCCCCCCCCCCCC(=O)OC` was 6.41.

The record behind these values is the OPERA property sets (Mansouri et al. 2018).
